Read-outs that look alike come from different tables or passages of the source.
System: patients with uncontrolled gout
From the text: As used herein, an “adverse event” or “AE” refers to any untoward medical occurrence associated with the use of a drug in humans, whether it is considered drug-related or not. An AE or suspected adverse reaction is considered a “serious adverse event” or “SAE” if, in the view of either the Investigator or Sponsor, it results in any of the following outcomes: (1) Death, (2) Life-threatening: an AE is considered “life-threatening” if, in the view of either the Investigator or Sponsor, its occurrence places the subject or subject at immediate risk of death. […] (5) A congenital anomaly/birth defect; (6) Important medical events that may not result in death, be life-threatening, or require hospitalization may be considered serious when, based upon appropriate medical judgment, they may jeopardize the patient or subject and may require medical or surgical intervention to prevent one of the outcomes listed in this definition.
Safety Variables: Safety was assessed via AE and concomitant medication use monitoring, physical examinations, vital signs, clinical safety laboratory evaluations (hematology, chemistry, urine uric acid:creatinine ratio), pregnancy testing (if applicable), electrocardiograms (ECGs), and AEs of special interest (i.e., IRs, anaphylaxis, gout flares, and cardiovascular events).
AEs of special interest may include IRs, anaphylaxis, gout flares, and cardiovascular events.
Severity in accordance with the disclosure is reported according to the following: Grade 1 (Mild)—No interference with daily activity. Grade 2 (Moderate)—Some interference with daily activity but medical intervention not required (e.g., doctor visit and/or medication); over the counter medicine permitted. Grade 3 (Severe)—Prevents daily activity and requires medical intervention (e.g., doctor visit and/or medication). Grade 4 (Potentially Life-threatening)—Emergency room visit or hospitalization.
An AE was defined as any untoward event, whether or not it was considered related to the use of pegloticase or MTX. Any worsening (i.e., any clinically significant adverse change in frequency or intensity) of a preexisting condition which was temporally associated with the use of pegloticase or MTX was also considered an AE. Abnormal laboratory values or test results constitute AEs only if they induce clinical signs or symptoms or require therapy, and were recorded on the AE CRF under the signs, symptoms or were associated with diagnoses associated with them. Screening conditions were not considered AE; however, worsening of a preexisting condition may be considered an AE. AEs were collected starting at the baseline, Visit 1.
TEAEs during the Pegloticase+IMM Period were defined as events that occur after the start of the first pegloticase infusion through 30 days after the last dose of pegloticase and/or MTX or placebo for MTX (whichever was later). TEAEs that occur during the MTX Tolerability Assessment Period prior to randomization (Weeks −6 to −4) was summarized separately for the MTX population. […] AEs that occur more than 30 days after the last dose of pegloticase and/or MTX or placebo for MTX through the 6-month follow-up visit was also summarized.

`CN(Cc1cnc2nc(N)nc(N)c2n1)c1ccc(C(=O)N[C@@H](CCC(=O)O)C(=O)O)cc1` [MTX, methotrexate] was tested, and the “Infections And Infestations, %” value was “(13.3) %”, the “Infections And Infestations, Incidence Rate” value was 1.8 Events/PY of MTX and the “Infections And Infestations, Total Events” value was 2. The “Blood And Lymphatic System Disorders, %” value (ITT N = 15) was “(6.7) %”, the “Chronic Sinusitis, %” value (ITT N = 15) was “(6.7) %” and the “Cough, %” value (ITT N = 15) was “(6.7) %”. For the same molecule, the “Dental Caries, %” value (ITT N = 15) was “(6.7) %”, the “Diarrhoea, %” value (ITT N = 15) was “(6.7) %” and the “Dry Eye, %” value (ITT N = 15) was “(6.7) %”. For the same molecule, the “Eye Disorders, %” value (ITT N = 15) was “(6.7) %”, the “Headache, %” value (ITT N = 15) was “(6.7) %” and the “Leukopenia, %” value (ITT N = 15) was “(6.7) %”. For the same molecule, the “Nasopharyngitis, %” value (ITT N = 15) was “(6.7) %”, the “Nervous System Disorders, %” value (ITT N = 15) was “(6.7) %” and the “Neutropenia, %” value (ITT N = 15) was “(6.7) %”. The “Pruritus, %” value (ITT N = 15) was “(6.7) %”, the “Respiratory, Thoracic And Mediastinal Disorders, %” value (ITT N = 15) was “(6.7) %” and the “Skin And Subcutaneous Tissue Disorders, %” value (ITT N = 15) was “(6.7) %”. For the same molecule, the “Abdominal Discomfort, Incidence Rate” value (ITT N = 15, PY of MTX = 1.1) was 1.8 Events/PY of MTX, the “Blood And Lymphatic System Disorders, Incidence Rate” value (ITT N = 15, PY of MTX = 1.1) was 1.8 Events/PY of MTX and the “Chronic Sinusitis, Incidence Rate” value (ITT N = 15, PY of MTX = 1.1) was 0.9 Events/PY of MTX. For the same molecule, the “Cough, Incidence Rate” value (ITT N = 15, PY of MTX = 1.1) was 0.9 Events/PY of MTX, the “Dental Caries, Incidence Rate” value (ITT N = 15, PY of MTX = 1.1) was 0.9 Events/PY of MTX and the “Diarrhoea, Incidence Rate” value (ITT N = 15, PY of MTX = 1.1) was 0.9 Events/PY of MTX. For the same molecule, the “Dry Eye, Incidence Rate” value (ITT N = 15, PY of MTX = 1.1) was 0.9 Events/PY of MTX, the “Eye Disorders, Incidence Rate” value (ITT N = 15, PY of MTX = 1.1) was 0.9 Events/PY of MTX and the “Gastrointestinal Disorders, Incidence Rate” value (ITT N = 15, PY of MTX = 1.1) was 5.5 Events/PY of MTX. For the same molecule, the “Gout, Incidence Rate” value (ITT N = 15, PY of MTX = 1.1) was 5.5 Events/PY of MTX, the “Headache, Incidence Rate” value (ITT N = 15, PY of MTX = 1.1) was 0.9 Events/PY of MTX and the “Leukopenia, Incidence Rate” value (ITT N = 15, PY of MTX = 1.1) was 0.9 Events/PY of MTX. The “Metabolism And Nutrition Disorders, Incidence Rate” value (ITT N = 15, PY of MTX = 1.1) was 5.5 Events/PY of MTX, the “Nasopharyngitis, Incidence Rate” value (ITT N = 15, PY of MTX = 1.1) was 0.9 Events/PY of MTX and the “Nausea, Incidence Rate” value (ITT N = 15, PY of MTX = 1.1) was 1.8 Events/PY of MTX. For the same molecule, the “Nervous System Disorders, Incidence Rate” value (ITT N = 15, PY of MTX = 1.1) was 0.9 Events/PY of MTX, the “Neutropenia, Incidence Rate” value (ITT N = 15, PY of MTX = 1.1) was 0.9 Events/PY of MTX and the “Pruritus, Incidence Rate” value (ITT N = 15, PY of MTX = 1.1) was 0.9 Events/PY of MTX. The “Respiratory, Thoracic And Mediastinal Disorders, Incidence Rate” value (ITT N = 15, PY of MTX = 1.1) was 0.9 Events/PY of MTX, the “Skin And Subcutaneous Tissue Disorders, Incidence Rate” value (ITT N = 15, PY of MTX = 1.1) was 0.9 Events/PY of MTX and the “Blood And Lymphatic System Disorders, %” value (mITT N = 14) was “(7.1) %”. The “Chronic Sinusitis, %” value (mITT N = 14) was “(7.1) %”, the “Cough, %” value (mITT N = 14) was “(7.1) %” and the “Dental Caries, %” value (mITT N = 14) was “(7.1) %”. For the same molecule, the “Diarrhoea, %” value (mITT N = 14) was “(7.1) %”, the “Dry Eye, %” value (mITT N = 14) was “(7.1) %” and the “Eye Disorders, %” value (mITT N = 14) was “(7.1) %”. For the same molecule, the “Headache, %” value (mITT N = 14) was “(7.1) %”, the “Infections And Infestations, %” value (mITT N = 14) was “(14.3) %” and the “Infections And Infestations, Total Events” value (mITT N = 14) was 2. The “Leukopenia, %” value (mITT N = 14) was “(7.1) %”, the “Nasopharyngitis, %” value (mITT N = 14) was “(7.1) %” and the “Nervous System Disorders, %” value (mITT N = 14) was “(7.1) %”. The “Neutropenia, %” value (mITT N = 14) was “(7.1) %”, the “Pruritus, %” value (mITT N = 14) was “(7.1) %” and the “Respiratory, Thoracic And Mediastinal Disorders, %” value (mITT N = 14) was “(7.1) %”. The “Skin And Subcutaneous Tissue Disorders, %” value (mITT N = 14) was “(7.1) %”, the “Abdominal Discomfort, Incidence Rate” value (mITT N = 14, PY of MTX = 1.0) was 2.0 Events/PY of MTX and the “Any TEAEs, Incidence Rate” value (mITT N = 14, PY of MTX = 1.0) was 20.0 Events/PY of MTX. For the same molecule, the “Blood And Lymphatic System Disorders, Incidence Rate” value (mITT N = 14, PY of MTX = 1.0) was 2.0 Events/PY of MTX, the “Chronic Sinusitis, Incidence Rate” value (mITT N = 14, PY of MTX = 1.0) was 1.0 Events/PY of MTX and the “Cough, Incidence Rate” value (mITT N = 14, PY of MTX = 1.0) was 1.0 Events/PY of MTX. For the same molecule, the “Dental Caries, Incidence Rate” value (mITT N = 14, PY of MTX = 1.0) was 1.0 Events/PY of MTX, the “Diarrhoea, Incidence Rate” value (mITT N = 14, PY of MTX = 1.0) was 1.0 Events/PY of MTX and the “Dry Eye, Incidence Rate” value (mITT N = 14, PY of MTX = 1.0) was 1.0 Events/PY of MTX.

— US20220323445A1, “REDUCING IMMUNOGENICITY TO PEGLOTICASE” (Horizon Therapeutics Ireland DAC, priority 2020, published 2022)
